In patent publication US20250092065A1, “2-(INDAZOL-5-YL)-6-(PIPERIDIN-4-YL)-1,7-NAPHTHYRIDINE DERIVATIVES AND RELATED COMPOUNDS AS MODULATORS FOR SPLICING NUCLEIC ACIDS AND FOR THE TREATMENT OF PROLIFERATIVE DISEASES” (REMIX THERAPEUTICS INC., priority 2022, published 2025):
Where two headings read alike, the source gives them in different places.

What was measured:
MYB mRNA = assay: RT-qPCR splicing assay, MYB mRNA canonical (CJ) and alternative (AJ) junction; assay type: cell-based, human; settings: Homo sapiens; for AC50: MYB alternative junction mRNA, read-out: MYB AJ (increase in AJ mRNA, AC50)
Outline: (§1)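 Junction-specific RT-qPCR read-out: CJ and AJ isoform levels, housekeeper-normalized (GAPDH/GUSB/PPIA), ΔΔCt vs DMSO, converted to RQ then % response. Cells: A673 (DMEM/10% FBS, adhered 24 h) or K562 (IMDM/10% FBS). Compound 11-pt 3-fold, top 10 uM, 24 h, 37 °C.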

SMN2 mRNA = assay: RT-qPCR splicing assay, SMN2 mRNA; assay type: cell-based, human; settings: Homo sapiens, canonical junction qPCR panel, Table 4; read-out: SMN2 IC50 (decrease in CJ mRNA levels)
Outline: as §1

Target C = assay: RT-qPCR canonical junction panel assay, Target C mRNA; assay type: cell-based; settings: Table 4, read-out: Target C IC50 (decrease in CJ mRNA levels)
Outline: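 IC50 is the concentration giving 50% CJ decrease, from a 4-parameter logistic fit of percent response; response derived from ΔΔCt against housekeeper and DMSO over a fixed ΔCt window, with canonical exon-junction qPCR in compound-treated K562 or A673 cells.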

[1] = MYB canonical junction mRNA, RT-qPCR, read-out: MYB CJ (decrease in CJ mRNA levels, IC50)
[2] = canonical junction qPCR panel, Table 4, read-out: MYB IC50 (decrease in CJ mRNA levels)

IC50 (MYB mRNA; [1]) | IC50 (MYB mRNA; [2]) | IC50 (SMN2 mRNA) | IC50 (Target C) | SMILES | AC50 (MYB mRNA; RT-qPCR)
< 100 nM | < 100 nM | < 100 nM | 100 to 1000 nM | C[C@H]1C[C@H](c2ccc3nc(-c4cc5cn(C)nc5c(F)c4O)ccc3n2)CCN1 (single isomer, unassigned) [Compound 356] | < 100 nM
< 100 nM | < 100 nM | < 100 nM | 100 to 1000 nM | Cc1c(O)c(-c2ccc3nc(N4CC[C@H](N[C@H]5C[C@H](F)C5)C4)ccc3n2)cc2cn(C)nc12 (single isomer, unassigned) [Compound 358] | < 100 nM
< 100 nM | < 100 nM | < 100 nM | 100 to 1000 nM | Cn1cc2cc(-c3ccc4nc(N5CC[C@@H](N)C5)ccc4n3)c(O)c(F)c2n1 (single isomer, unassigned) [Compound 362] | < 100 nM
< 100 nM | < 100 nM | < 100 nM | 1000 to 10000 nM | CN[C@@H]1CCN(c2ccc3nc(-c4cc5cn(C)nc5c(C)c4O)ncc3n2)C1 (single isomer, unassigned) [Compound 368] | < 100 nM
100 to 1000 nM | 100 to 1000 nM | < 100 nM | 1000 to 10000 nM | CN[C@H]1CCN(c2ccc3nc(-c4cc5cn(C)nc5c(C)c4O)ncc3n2)C1 (single isomer, unassigned) [Compound 369] | 100 to 1000 nM
< 100 nM | < 100 nM | < 100 nM | < 100 nM | Cc1nc2c(F)c(O)c(-c3ccc4nc(N5CC[C@H](NC6(CF)CC6)C5)ccc4n3)cc2o1 (single isomer, unassigned) [Compound 373] | < 100 nM
< 100 nM | < 100 nM | < 100 nM | 1000 to 10000 nM | Cn1cc2cc(-c3ncc4nc(N5CC[C@@H](N)C5)ccc4n3)c(O)c(F)c2n1 (single isomer, unassigned) [Compound 380] | < 100 nM
< 100 nM | < 100 nM | < 100 nM | 100 to 1000 nM | C[C@H]1C[C@@H](c2ccc3nc(-c4cc5cn(C)nc5c(F)c4O)ccc3n2)CCN1 (single isomer, unassigned) [Compound 383] | < 100 nM
< 100 nM | < 100 nM | < 100 nM | < 100 nM | Cn1cc2cc(-c3ccc4nc(N5CC[C@@H](NC(C)(C)C)C5)ccc4n3)c(O)c(F)c2n1 (single isomer, unassigned) [Compound 391] | < 100 nM
< 100 nM | < 100 nM | < 100 nM | < 100 nM | Cn1cc2cc(-c3ccc4nc(N5CC[C@H](NC(C)(C)C)C5)ccc4n3)c(O)c(F)c2n1 (single isomer, unassigned) [Compound 392] | < 100 nM
< 100 nM | < 100 nM | < 100 nM | < 100 nM | Cc1nc2c(F)c(O)c(-c3ccc4nc(N5CC[C@@H](NC6(CF)CC6)C5)ccc4n3)cc2o1 (single isomer, unassigned) [Compound 491] | < 100 nM
< 100 nM | < 100 nM | < 100 nM | < 100 nM | Cn1cc2cc(-c3ccc4nc(N5CCC(NC6(CF)CC6)C5)ccc4n3)c(O)c(F)c2n1 (stereo in doubt) [Compound 353, 7-fluoro-5-{6-[(3R)-3-{[1-(fluoromethyl)cyclopropyl]amino}pyrrolidin-1-yl]-1,5-naphthyridin-2-yl}-2-methylindazol-6-ol] | < 100 nM
< 100 nM | < 100 nM | < 100 nM | < 100 nM | Cn1cc2cc(-c3ccc4nc(N5CCC(NC6(CF)CC6)C5)ccc4n3)c(O)c(F)c2n1 (stereo in doubt) [Compound 357, 7-fluoro-5-{6-[(3S)-3-{[1-(fluoromethyl)cyclopropyl]amino}pyrrolidin-1-yl]-1,5-naphthyridin-2-yl}-2-methylindazol-6-ol] | < 100 nM
< 100 nM | < 100 nM | < 100 nM | < 100 nM | Cn1cc2cc(-c3ccc4nc(N5CCC(N)C5)ccc4n3)c(O)c(F)c2n1 (stereo in doubt) [Compound 363, 5-{6-[(3R)-3-aminopyrrolidin-1-yl]-1,5-naphthyridin-2-yl}-7-fluoro-2-methylindazol-6-ol] | < 100 nM
< 100 nM | < 100 nM | < 100 nM | < 100 nM | Cc1nc2c(F)c(O)c(-c3ccc4nc(N5CC[C@@H](N[C@H]6C[C@@H](F)C6)C5)ccc4n3)cc2o1 (stereo in doubt) [Compound 375] | < 100 nM
< 100 nM | < 100 nM | < 100 nM | < 100 nM | Cn1cc2cc(-c3ccc4nc(N5CC[C@@H](NC6(CF)CC6)C5)ccc4n3)c(O)cc2n1 [Compound 354, 5-{6-[(3R)-3-{[1-(fluoromethyl)cyclopropyl]amino}pyrrolidin-1-yl]-1,5-naphthyridin-2-yl}-2-methylindazol-6-ol] | < 100 nM
< 100 nM | < 100 nM | < 100 nM | 100 to 1000 nM | Cn1cc2cc(-c3ccc4nc(N5CC[C@H](NC6(CF)CC6)C5)ccc4n3)c(O)cc2n1 [Compound 355, 5-{6-[(3S)-3-{[1-(fluoromethyl)cyclopropyl]amino}pyrrolidin-1-yl]-1,5-naphthyridin-2-yl}-2-methylindazol-6-ol] | < 100 nM

The next lines start with the compound.

SMILES | IC50 (MYB mRNA; [1]) | IC50 (MYB mRNA; [2]) | IC50 (SMN2 mRNA) | IC50 (Target C) | AC50 (MYB mRNA; RT-qPCR)
Cc1nc2c(C)c(O)c(-c3ccc4nc(N5CC[C@H](NC6(CF)CC6)C5)ccc4n3)cc2o1 (single isomer, unassigned) [Compound 378] | < 100 nM | < 100 nM | < 100 nM | < 100 nM | < 100 nM
Cc1nc2c(C)c(O)c(-c3ccc4nc(N5CC[C@@H](NC6(CF)CC6)C5)ccc4n3)cc2o1 (single isomer, unassigned) [Compound 379] | 100 to 1000 nM | 100 to 1000 nM | < 100 nM | 100 to 1000 nM | 100 to 1000 nM
Cn1cc2cc(-c3ccc4nc(C5CCNC[C@H]5O)ccc4n3)c(O)cc2n1 (single isomer, unassigned) [Compound 386] | 100 to 1000 nM | 100 to 1000 nM | < 100 nM | > 10000 nM | 1000 to 10000 nM
Cc1c(O)c(-c2ncc3nc([C@@H]4CCNC4)ccc3n2)cc2cn(C)nc12 (single isomer, unassigned) [Compound 398] | 1000 to 10000 nM | 1000 to 10000 nM | < 100 nM | > 10000 nM | 1000 to 10000 nM
Cc1nc2c(C)c(O)c(-c3ccc4nc(N5CC[C@@H](NC6CC6)C5)ncc4n3)cc2o1 (single isomer, unassigned) [Compound 432] | < 100 nM | < 100 nM | < 100 nM | < 100 nM | 100 to 1000 nM
Cc1nc2cc(O)c(-c3ccc4nc(N5CC[C@@H](NC6CC6)C5)ncc4n3)cc2o1 (single isomer, unassigned) [Compound 434] | 100 to 1000 nM | 100 to 1000 nM | < 100 nM | 100 to 1000 nM | 100 to 1000 nM
Cc1nc2c(C)c(O)c(-c3ccc4cc(N5CC[C@@H](NC(C)(C)C)C5)ncc4n3)cc2o1 (single isomer, unassigned) [Compound 444] | 100 to 1000 nM | 100 to 1000 nM | < 100 nM | 100 to 1000 nM | 100 to 1000 nM
Cc1nc2c(C)c(O)c(-c3ccc4cc(N5CC[C@H](NC(C)(C)C)C5)ncc4n3)cc2o1 (single isomer, unassigned) [Compound 445] | 1000 to 10000 nM | 1000 to 10000 nM | 100 to 1000 nM | 1000 to 10000 nM | 1000 to 10000 nM
Cc1nc2cc(O)c(-c3ccc4nc(N5CC[C@@H](NC6(CF)CC6)C5)ccc4n3)cc2o1 (single isomer, unassigned) [Compound 488] | < 100 nM | < 100 nM | < 100 nM | < 100 nM | < 100 nM
Cc1nc2cc(O)c(-c3ccc4nc(N5CC[C@H](NC6(CF)CC6)C5)ccc4n3)cc2o1 (single isomer, unassigned) [Compound 489] | < 100 nM | < 100 nM | < 100 nM | 100 to 1000 nM | < 100 nM
Cc1nc2c(C)c(O)c(-c3ccc4nc(N5CC[C@@H](N[C@H]6C[C@@H](F)C6)C5)ccc4n3)cc2o1 (stereo in doubt) [Compound 376] | < 100 nM | < 100 nM | < 100 nM | 100 to 1000 nM | < 100 nM
Cc1nc2c(C)c(O)c(-c3ccc4nc(N5CC[C@H](N[C@H]6C[C@@H](F)C6)C5)ccc4n3)cc2o1 (stereo in doubt) [Compound 377] | < 100 nM | < 100 nM | < 100 nM | < 100 nM | < 100 nM
Cc1nc2cc(O)c(-c3ccc4nc(N5CC[C@@H](N[C@H]6C[C@@H](F)C6)C5)ccc4n3)cc2o1 (stereo in doubt) [Compound 395] | 100 to 1000 nM | 100 to 1000 nM | < 100 nM | 1000 to 10000 nM | 100 to 1000 nM
Cc1nc2cc(O)c(-c3ccc4nc(N5CC[C@H](N[C@H]6C[C@@H](F)C6)C5)ccc4n3)cc2o1 (stereo in doubt) [Compound 396] | 100 to 1000 nM | 100 to 1000 nM | < 100 nM | 100 to 1000 nM | 100 to 1000 nM
